According to PubChem BioAssay (NCI):
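96-well plates; 48 h exposure; 5 concentrations. Endpoints by linear interpolation between flanking doses. Not reached: highest tested concentration assigned. TGI: concentration producing complete growth inhibition.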

What was measured:
Experiment in all cases: NCI anticancer screen, dose series, 48 h
[1] = tested on: KM12 colon
[2] = tested on: SF-295 CNS
[3] = tested on: HL-60(TB) leukemia
[4] = tested on: MDA-N
[5] = tested on: K-562 leukemia
[6] = tested on: SK-MEL-2 melanoma
[7] = tested on: OVCAR-4 ovarian
[8] = tested on: IGROV1 ovarian
[9] = tested on: UACC-257 melanoma
[10] = tested on: NCI/ADR-RES ovarian
[11] = tested on: NCI-H460 lung
[12] = tested on: CAKI-1 renal
[13] = tested on: SN12C renal
[14] = tested on: UO-31 renal
[15] = tested on: NCI-H522 lung
[16] = tested on: SW-620 colon
[17] = tested on: MDA-MB-231 breast
[18] = tested on: MDA-MB-435
[19] = tested on: BT-549 breast
[20] = tested on: MCF7 breast
[21] = tested on: RPMI-8226 leukemia
[22] = tested on: NCI-H23 lung
[23] = tested on: SNB-19 CNS
[24] = tested on: SK-MEL-28 melanoma
[25] = tested on: HS 578T breast
[26] = tested on: M14 melanoma
[27] = tested on: U251 CNS
[28] = tested on: HCT-116 colon
[29] = tested on: RXF 393 renal
[30] = tested on: HT29 colon
[31] = tested on: HCC-2998 colon
[32] = tested on: SK-MEL-5 melanoma
[33] = tested on: SR leukemia
[34] = tested on: ACHN renal
[35] = tested on: OVCAR-8 ovarian
[36] = tested on: SF-268 CNS
[37] = tested on: OVCAR-3 ovarian
[38] = tested on: EKVX NSCLC
[39] = tested on: A498 renal
[40] = tested on: T-47D breast
[41] = tested on: CCRF-CEM leukemia
[42] = tested on: DU-145 prostate
[43] = tested on: UACC-62 melanoma
[44] = tested on: SF-539 CNS
[45] = tested on: PC-3 prostate
[46] = tested on: NCI-H226 lung
[47] = tested on: HCT-15 colon
[48] = tested on: SNB-75 CNS
[49] = tested on: COLO 205 colon
[50] = tested on: SK-OV-3 ovarian
[51] = tested on: MALME-3M melanoma
[52] = tested on: OVCAR-5 ovarian
[53] = tested on: A549 NSCLC
[54] = tested on: HOP-92 NSCLC
[55] = tested on: MOLT-4 leukemia
[56] = tested on: TK-10 renal
[57] = tested on: HOP-62 NSCLC
[58] = tested on: LOX IMVI melanoma
[59] = tested on: 786-0 renal

N#CC1(C#N)C(=O)c2ccncc2C1=O
TGI [1]: > 100 µM
TGI [2]: > 100 µM
TGI [3]: > 100 µM
TGI [4]: > 100 µM
TGI [5]: > 100 µM
TGI [6]: > 100 µM
TGI [7]: > 100 µM
TGI [8]: > 100 µM
TGI [9]: > 100 µM
TGI [10]: > 100 µM
TGI [11]: > 100 µM
TGI [12]: > 100 µM
TGI [13]: > 100 µM
TGI [14]: > 100 µM
TGI [15]: > 100 µM
TGI [16]: > 100 µM
TGI [17]: > 100 µM
TGI [18]: > 100 µM
TGI [19]: > 100 µM
TGI [20]: > 100 µM
TGI [21]: > 100 µM
TGI [22]: > 100 µM
TGI [23]: > 100 µM
TGI [24]: > 100 µM
TGI [25]: > 100 µM
TGI [26]: > 100 µM
TGI [27]: > 100 µM
TGI [28]: > 100 µM
TGI [29]: > 100 µM
TGI [30]: > 100 µM
TGI [31]: > 100 µM
TGI [32]: > 100 µM
TGI [33]: > 100 µM
TGI [34]: > 100 µM
TGI [35]: > 100 µM
TGI [36]: > 100 µM
TGI [37]: > 100 µM
TGI [38]: > 100 µM
TGI [39]: > 100 µM
TGI [40]: > 100 µM
TGI [41]: > 100 µM
TGI [42]: > 100 µM
TGI [43]: > 100 µM
TGI [44]: > 100 µM
TGI [45]: > 100 µM
TGI [46]: > 100 µM
TGI [47]: > 100 µM
TGI [48]: > 100 µM
TGI [49]: > 100 µM
TGI [50]: > 100 µM
TGI [51]: > 100 µM
TGI [52]: > 100 µM
TGI [53]: > 100 µM
TGI [54]: > 100 µM

Fc1ccccc1-c1cc(=S)c2cc3c(cc2[nH]1)OCO3
TGI [1]: > 100 µM
TGI [2]: > 100 µM
TGI [4]: > 26.7 µM
TGI [5]: > 100 µM
TGI [6]: > 76.7 µM
TGI [7]: > 100 µM
TGI [8]: > 100 µM
TGI [9]: > 100 µM
TGI [10]: 63.2 µM
TGI [11]: > 100 µM
TGI [12]: > 100 µM
TGI [13]: > 100 µM
TGI [14]: > 100 µM
TGI [15]: 57 µM
TGI [16]: > 100 µM
TGI [17]: > 100 µM
TGI [18]: > 23.6 µM
TGI [55]: > 25.1 µM
TGI [19]: > 100 µM
TGI [56]: > 100 µM
TGI [20]: > 100 µM
TGI [21]: > 70 µM
TGI [57]: > 100 µM
TGI [22]: > 100 µM
TGI [23]: 98.1 µM
TGI [24]: > 100 µM
TGI [25]: > 100 µM
TGI [26]: > 100 µM
TGI [27]: > 100 µM
TGI [28]: > 100 µM
TGI [29]: > 100 µM
TGI [30]: 40.2 µM
TGI [31]: > 45.5 µM
TGI [32]: > 30.7 µM
TGI [33]: > 100 µM
TGI [34]: > 100 µM
TGI [35]: > 100 µM
TGI [36]: > 100 µM
TGI [37]: > 100 µM
TGI [38]: > 100 µM
TGI [39]: > 100 µM
TGI [40]: > 100 µM
TGI [41]: > 100 µM
TGI [42]: > 100 µM
TGI [58]: > 100 µM
TGI [43]: > 30 µM
TGI [44]: > 89 µM
TGI [45]: > 80.2 µM
TGI [46]: > 100 µM
TGI [47]: > 100 µM
TGI [59]: > 100 µM
TGI [49]: > 89 µM
TGI [50]: > 100 µM
TGI [51]: > 100 µM
TGI [52]: > 100 µM
TGI [53]: > 100 µM
TGI [54]: > 100 µM

COc1ccc(Cc2ccc3[nH]c(=O)cc(C)c3c2)cc1S(=O)(=O)O
TGI [1]: > 100 µM
TGI [2]: > 100 µM
TGI [3]: > 100 µM
TGI [4]: > 100 µM
TGI [5]: > 100 µM
TGI [6]: > 100 µM
TGI [7]: > 100 µM
TGI [8]: > 100 µM
TGI [9]: > 100 µM
TGI [10]: > 100 µM
TGI [11]: > 100 µM
TGI [12]: > 100 µM
TGI [13]: > 100 µM
TGI [14]: > 100 µM
TGI [15]: > 100 µM
TGI [16]: > 100 µM
TGI [17]: > 100 µM
TGI [18]: > 100 µM
TGI [55]: > 100 µM
TGI [19]: > 100 µM
TGI [56]: > 100 µM
TGI [20]: > 100 µM
TGI [21]: > 100 µM
TGI [57]: > 100 µM
TGI [22]: > 100 µM
TGI [23]: > 100 µM
TGI [24]: > 100 µM
TGI [25]: > 100 µM
TGI [26]: > 100 µM
TGI [27]: > 100 µM
TGI [28]: > 100 µM
TGI [29]: > 100 µM
TGI [30]: > 100 µM
TGI [32]: > 100 µM
TGI [33]: > 100 µM
TGI [34]: > 100 µM
TGI [35]: > 100 µM
TGI [36]: > 100 µM
TGI [37]: > 100 µM
TGI [38]: > 100 µM
TGI [39]: > 100 µM
TGI [40]: > 100 µM
TGI [41]: > 100 µM
TGI [42]: > 100 µM
TGI [58]: > 100 µM
TGI [43]: > 100 µM
TGI [44]: > 100 µM
TGI [45]: > 100 µM
TGI [46]: > 100 µM
TGI [47]: > 100 µM
TGI [48]: > 100 µM
TGI [59]: > 100 µM
TGI [49]: > 100 µM
TGI [50]: > 100 µM
TGI [51]: > 100 µM
TGI [52]: > 100 µM
TGI [53]: > 100 µM
TGI [54]: > 100 µM
